From US12514254B2, “Rosa canina rosehip” (priority 2020, dated 2026)

How the values were obtained:
P. aeruginosa = assay: Drug-resistance profile towards antibiotics; format: cell-based, Pseudomonas aeruginosa; further: key: R = resistant; S = sensitive
Experimental: (§1) The resistance profiles of the microbial strains mentioned above, evaluated by the inventors and available in the literature, are reported in Tables 4 and 5 [24-26].
(§2) The activity on bacterial or fungal (yeast) strains isolated from biological samples from hospitalized or collection patients was evaluated, the nosocomial derivation of the majority of these strains characterized their resistance to different antimicrobials as reported in Tables 4 and 5.
(§3) In particular: • Klebsiella pneumoniae: represents the main opportunistic microorganism responsible for nosocomial infections and several authors report persistent biofilms of K. pneumoniae in water systems. A clinical isolate (NC5) was used to assess the actual resistance to the preparations. • Escherichia coli: the ATCC 7075 (American Type Culture Collection) strain was used. • Staphylococcus aureus Methicillin-resistantATCC BAA-811 is responsible for several suppurative infections in humans, it is often isolated in patients with prostheses. • Pseudomonas aeruginosa: in the present work a mucoid strain was tested (ATCC 15442) from the American Type Culture Collection (ATCC), known in the literature for its remarkable refractoriness to disinfectants, in particular if the strain is present in sessile form or in a state of mature biofilm. https://www.lgcstandards-atcc.org/products/all/15442.aspx?geo_country=it • Three azole-resistant clinical isolates belonging to the Candida genus were used, in particular: C. albicans clinical isolate BF1, C. krusei clinical isolate BF2 andclinical C. glabrata, isolate BF3 [1,26]. • In all the tests performed, each microbial species was cultivated according to standard growth conditions, in particular: • 1. Mueller-Hinton Agar medium (Microbiol, Uta, Cagliari), was used for the growth of E. coli, S. aureus, P. aeruginosa and K. pneumoniae. The development conditions were: in air at 37° C. • 2. Schaedler Agar and Broth (Microbiol) medium was used for the growth of S. pyogenes and S. mutans. Development conditions: in air and 5% CO2 at 37° C. • 3. Sabouraud Dextrose Agar and Broth (Microbiol), used for C. albicans, C. krusei and C. glabrata. Development conditions: in air at 37° C.

K. pneumoniae = assay: Drug-resistance profile towards antibiotics; format: cell-based, Klebsiella pneumoniae; further: key: R = resistant; S = sensitive
Experimental: as §1, §2, §3

E. coli = assay: Drug-resistance profile towards antibiotics; format: cell-based, Escherichia coli; further: key: R = resistant; S = sensitive
Experimental: as §1, §2, §3

S. aureus MRSA = assay: Drug-resistance profile towards antibiotics; format: cell-based, Staphylococcus aureus; further: key: R = resistant; S = sensitive
Experimental: as §1, §2, §3

S. pyogenes = assay: Drug-resistance profile towards antibiotics; format: cell-based, Streptococcus pyogenes; further: key: R = resistant; S = sensitive
Experimental: as §1, §2, §3

C. albicans = assay: Drug-resistance profile of fungal strains; format: cell-based, Candida albicans
Experimental: as §1, §2
as §3, with “Sabouraud Dextrose Agar and Broth (Microbiol), used for C. albicans, C. krusei and C. glabrata. Development conditions: in air at 37° C.” left out

C. krusei = assay: Drug-resistance profile of fungal strains; format: cell-based, Candida krusei
Experimental: as §1, §2
as §3, with “Sabouraud Dextrose Agar and Broth (Microbiol), used for C. albicans, C. krusei and C. glabrata. Development conditions: in air at 37° C.” left out

C. glabrata = assay: Drug-resistance profile of fungal strains; format: cell-based, Candida glabrata
Experimental: as §1, §2
as §3, with “Sabouraud Dextrose Agar and Broth (Microbiol), used for C. albicans, C. krusei and C. glabrata. Development conditions: in air at 37° C.” left out

| Molecule | Drug-resistance profile (P. aeruginosa) | Drug-resistance profile (K. pneumoniae) | Drug-resistance profile (S. aureus MRSA) | Drug-resistance profile (S. pyogenes) | also measured |
| --- | --- | --- | --- | --- | --- |
| NCC[C@H](O)C(=O)N[C@@H]1C[C@H](N)[C@@H](O[C@H]2O[C@H](CN)[C@@H](O)[C@H](O)[C@H]2O)[C@H](O)[C@H]1O[C@H]1O[C@H](CO)[C@@H](O)[C@H](N)[C@H]1O [Amikacin] | S | R | – | – | Drug-resistance profile (E. coli): R |
| CC1(C)S[C@@H]2[C@H](NC(=O)Cc3ccccc3)C(=O)N2[C@H]1C(=O)O [Benzylpenicillin] | – | – | R | – | – |
| CO/N=C(\C(=O)N[C@@H]1C(=O)N2C(C(=O)[O-])=C(C[N+]3(C)CCCC3)CS[C@H]12)c1csc(N)n1 [Cefepime] | S | S | – | – | – |
| CO/N=C(\C(=O)N[C@@H]1C(=O)N2C(C(=O)O)=C(COC(C)=O)CS[C@H]12)c1csc(N)n1 [Cefotaxime] | – | – | – | – | Drug-resistance profile (E. coli): S |
| CCO/N=C(\C(=O)N[C@@H]1C(=O)N2C(C(=O)[O-])=C(Sc3nc(-c4cc[n+](C)cc4)cs3)CS[C@H]12)c1nsc(N)n1 [Ceftaroline] | – | – | S | – | – |
| CC(C)(O/N=C(\C(=O)N[C@@H]1C(=O)N2C(C(=O)[O-])=C(C[n+]3ccccc3)CS[C@H]12)c1csc(N)n1)C(=O)O [Ceftazidime] | S | S | – | – | Drug-resistance profile (E. coli): S |
| O=C(O)c1cn(C2CC2)c2cc(N3CCNCC3)c(F)cc2c1=O [Ciprofloxacin] | R | S | – | – | – |
| CCC[C@@H]1C[C@@H](C(=O)N[C@@H]([C@H]2O[C@H](SC)[C@H](O)[C@@H](O)[C@H]2O)[C@H](C)Cl)N(C)C1 [Clindamycin] | – | – | S | S | – |
| CCCCCCCCCC(=O)N[C@@H](Cc1c[nH]c2ccccc12)C(=O)N[C@H](CC(N)=O)C(=O)N[C@@H](CC(=O)O)C(=O)N[C@@H]1C(=O)NCC(=O)N[C@@H](CCCN)C(=O)N[C@@H](CC(=O)O)C(=O)N[C@H](C)C(=O)N[C@@H](CC(=O)O)C(=O)NCC(=O)N[C@H](CO)C(=O)N[C@@H]([C@H](C)CC(=O)O)C(=O)N[C@@H](CC(=O)c2ccccc2N)C(=O)O[C@@H]1C [Daptomycin] | – | – | S | – | – |
| C[C@@H](O)[C@H]1C(=O)N2C(C(=O)O)=C(S[C@@H]3CN[C@H](C(=O)Nc4cccc(C(=O)O)c4)C3)[C@H](C)[C@H]12 [Ertapenem] | R | R | – | – | Drug-resistance profile (E. coli): S |
| CC[C@H]1OC(=O)[C@H](C)[C@@H](O[C@H]2C[C@@](C)(OC)[C@@H](O)[C@H](C)O2)[C@H](C)[C@@H](O[C@@H]2O[C@H](C)C[C@H](N(C)C)[C@H]2O)[C@](C)(O)C[C@@H](C)C(=O)[C@H](C)[C@@H](O)[C@]1(C)O [Erythromycin] | – | – | R | S | – |
| OC(Cn1cncn1)(Cn1cncn1)c1ccc(F)cc1F [Fluconazole] | – | – | – | – | Drug-resistance profile (C. albicans; FLC reference values): R (FLC: R > 64 μg/mL); Drug-resistance profile (C. krusei; FLC reference values): R (FLC: R > 64 μg/mL); Drug-resistance profile (C. glabrata; FLC reference values): R (FLC: R > 64 μg/mL) |
| C[C@@H]1O[C@@H]1P(=O)(O)O [Fosfomycin] | R | S | – | – | – |
| CC(=O)O[C@H]1C[C@@]2(C)[C@@H](C[C@@H](O)[C@H]3[C@@]4(C)CC[C@@H](O)[C@@H](C)[C@@H]4CC[C@@]32C)/C1=C(\CCC=C(C)C)C(=O)O [Fusidic acid] | – | – | S | S | – |
| C[C@@H](O)[C@H]1C(=O)N2C(C(=O)O)=C(SCCN=CN)C[C@H]12 [Imipenem] | S | S | – | – | – |
| CC(=O)N1CCN(c2ccc(OCC3COC(Cn4ccnc4)(c4ccc(Cl)cc4Cl)O3)cc2)CC1 (stereo not shown) [Ketoconazole] | – | – | – | – | Drug-resistance profile (C. albicans; KTC reference values): R (KTC: R > 1 μg/mL); Drug-resistance profile (C. krusei; KTC reference values): R (KTC: R > 1 μg/mL); Drug-resistance profile (C. glabrata; KTC reference values): R (KTC: R > 1 μg/mL) |

| Molecule | Drug-resistance profile (P. aeruginosa) | Drug-resistance profile (K. pneumoniae) | Drug-resistance profile (S. aureus MRSA) | Drug-resistance profile (S. pyogenes) | also measured |
| --- | --- | --- | --- | --- | --- |
| C[C@H]1COc2c(N3CCN(C)CC3)c(F)cc3c(=O)c(C(=O)O)cn1c23 [Levofloxacin] | – | – | S | S | – |
| CC(=O)NC[C@H]1CN(c2ccc(N3CCOCC3)c(F)c2)C(=O)O1 [Linezolid] | – | – | S | S | – |
| C[C@@H](O)[C@H]1C(=O)N2C(C(=O)O)=C(S[C@@H]3CN[C@H](C(=O)N(C)C)C3)[C@H](C)[C@H]12 [Meropenem] | S | S | – | – | Drug-resistance profile (E. coli): S |
| Cc1onc(-c2ccccc2)c1C(=O)N[C@@H]1C(=O)N2[C@@H]1SC(C)(C)[C@@H]2C(=O)O [Oxacillin] | – | – | S | R | – |
| CO[C@H]1/C=C/O[C@@]2(C)Oc3c(C)c(O)c4c(O)c(c(/C=N/N5CCN(C)CC5)c(O)c4c3C2=O)NC(=O)/C(C)=C\C=C\[C@H](C)[C@H](O)[C@@H](C)[C@@H](O)[C@@H](C)[C@H](OC(C)=O)[C@@H]1C [Rifampicin] | – | – | S | S | – |
| CN(C)[C@@H]1C(O)=C(C(N)=O)C(=O)[C@@]2(O)C(O)=C3C(=O)c4c(O)cccc4[C@@](C)(O)[C@H]3C[C@@H]12 [Tetracycline] | – | – | S | – | – |
| CN(C)c1cc(NC(=O)CNC(C)(C)C)c(O)c2c1C[C@H]1C[C@H]3[C@H](N(C)C)C(O)=C(C(N)=O)C(=O)[C@@]3(O)C(O)=C1C2=O [Tigecycline] | – | – | S | S | – |
| CN[C@H](CC(C)C)C(=O)N[C@H]1C(=O)N[C@@H](CC(N)=O)C(=O)N[C@H]2C(=O)N[C@H]3C(=O)N[C@H](C(=O)N[C@H](C(=O)O)c4cc(O)cc(O)c4-c4cc3ccc4O)[C@H](O)c3ccc(c(Cl)c3)Oc3cc2cc(c3O[C@@H]2O[C@H](CO)[C@@H](O)[C@H](O)[C@H]2O[C@H]2C[C@](C)(N)[C@H](O)[C@H](C)O2)Oc2ccc(cc2Cl)[C@H]1O [Vancomycin] | – | – | S | S | – |
| C[C@@H](c1ncncc1F)[C@](O)(Cn1cncn1)c1ccc(F)cc1F [Voriconazole] | – | – | – | – | Drug-resistance profile (C. albicans; VRC reference values): R (VRC: R > 4 μg/mL); Drug-resistance profile (C. krusei; VRC reference values): R (VRC: R > 4 μg/mL); Drug-resistance profile (C. glabrata; VRC reference values): R (VRC: R > 4 μg/mL) |
| Amoxicillin/ac. Clavulanic | – | – | – | – | Drug-resistance profile (E. coli): R |
| Colistin | S | S | – | – | – |
| Gentamicin | S | S | S | S | – |
| Piperacillin-tazobactam | S | S | – | – | Drug-resistance profile (E. coli): S |
| Teicoplanin | – | – | S | – | – |
| Trimethoprim-sulfamethoxazole | R | R | S | R | – |
